Source: patent publication US20050245399A1, “Pyrazole derivatives as herbicidal compositions containing them” (ISHIHARA SANGYO KAISHA, LTD., priority 2004, published 2005)

Assays:
Assay type in all cases: in vivo
[1] = tested on: barnyardgrass (Echinochiloa oryzicola: ECHOR); assay: Test Example 3 water application herbicidal activity (paddy), ECHOR; conditions: 63 g a.i./ha, water application under submerged condition at 0.5 leaf stage, visually observed 14th day after application; 0 = untreated control, 100 = complete kill
How it was run: (§1)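 Compound, as diluted wettable powder or emulsifiable concentrate, was pipetted into flood water at a set active-ingredient dose. Weeds were treated at 0.5-leaf stage after sowing or tuber planting; 2-leaf rice 4 days post-transplant. Control scored visually, 0 untreated to 100 complete kill, weeds day 14, rice day 21.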

[2] = tested on: barnyardgrass (Echinochloa crus-galli L.): ECHCG; assay: Test Example 1 pre-emergence herbicidal activity, ECHCG; conditions: Rate 63 g a.i./ha, visually observed 20th to 23rd day after application
How it was run: (§2)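 Visual scoring 20–23 days after treatment gives percent growth control, where 0 equals untreated and 100 means complete kill. Treatment: pre-emergence spray of formulated compound in 500 L/ha water, one day after sowing in upland soil.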

[3] = tested on: redroot pigweed (Amaranthus retroflexus L.), AMARE; assay: Test Example 2 post-emergence (foliage treatment) herbicidal activity, AMARE
How it was run: (§3)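 Foliar spray of formulated compound (500 L/ha dilution water, 0.1% v/v spreader) onto young potted plants at defined leaf stages. Scored 0-100% by visual inspection 20-23 d post-spray.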

[4] = tested on: prickly sida (Sida spinosa L.): SEDSP; assay: Test Example 1 pre-emergence herbicidal activity, SIDSP; conditions: Rate 63 g a.i./ha, visually observed 20th to 23rd day after application
How it was run: as §2

[5] = tested on: crabgrass (Digitaria sanguinalis L.), DIGSA; assay: Test Example 2 post-emergence (foliage treatment) herbicidal activity, DIGSA
How it was run: as §3

[6] = tested on: japanese bulrush (Scirpus juncoides: SCPJO); assay: Test Example 3 water application herbicidal activity (paddy), SCPJO; conditions: 63 g a.i./ha, water application under submerged condition at 0.5 leaf stage, visually observed 14th day after application; 0 = untreated control, 100 = complete kill
How it was run: as §1

[7] = tested on: green foxtail (Setaria viridis L.), SETVI; assay: Test Example 2 post-emergence (foliage treatment) herbicidal activity, SETVI
How it was run: (§4)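 Each species was evaluated for growth suppression by eye, 0% matching untreated and 100% meaning death, some 20 to 23 days after a single post-emergence foliar treatment applied in 500 L/ha of water carrying 0.1% (v/v) agricultural spreader.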

[8] = tested on: rice (Oryza sativa L.), ORYSA; assay: Test Example 2 post-emergence (foliage treatment) herbicidal activity, ORYSA
How it was run: as §3

[9] = tested on: corn (Zea mays L.), ZEAMX; assay: Test Example 2 post-emergence (foliage treatment) herbicidal activity, ZEAMX
How it was run: as §4

[10] = tested on: corn (Zea mays L.): ZEAMX; assay: Test Example 1 pre-emergence herbicidal activity, ZEAMX; conditions: Rate 63 g a.i./ha, visually observed 20th to 23rd day after application
How it was run: as §2

[11] = tested on: prickly sida (Sida spinosa L.), SIDSP; assay: Test Example 2 post-emergence (foliage treatment) herbicidal activity, SIDSP
How it was run: as §4

[12] = tested on: wheat (Triticum aestivum L.): TRZAX; assay: Test Example 1 pre-emergence herbicidal activity, TRZAX; conditions: Rate 63 g a.i./ha, visually observed 20th to 23rd day after application
How it was run: as §2

[13] = tested on: crabgrass (Digitaria sanguinalis L.): DIGSA; assay: Test Example 1 pre-emergence herbicidal activity, DIGSA; conditions: Rate 63 g a.i./ha, visually observed 20th to 23rd day after application
How it was run: as §2

[14] = tested on: velvetleaf (Abutilon theophrasti), ABUTH; assay: Test Example 2 post-emergence (foliage treatment) herbicidal activity, ABUTH
How it was run: as §4

[15] = tested on: soybean (Glycine max Merr.), GLXMA; assay: Test Example 2 post-emergence (foliage treatment) herbicidal activity, GLXMA
How it was run: as §4

[16] = tested on: green foxtail (Setaria viridis L.): SETVI; assay: Test Example 1 pre-emergence herbicidal activity, SETVI; conditions: Rate 63 g a.i./ha, visually observed 20th to 23rd day after application
How it was run: as §2

[17] = tested on: rice (Oryza sativa L.): ORYSA; assay: Test Example 1 pre-emergence herbicidal activity, ORYSA; conditions: Rate 63 g a.i./ha, visually observed 20th to 23rd day after application
How it was run: as §2

[18] = tested on: japanese ribbon wapato (Sagittaria pygmaea: SA GPY); assay: Test Example 3 water application herbicidal activity (paddy), SAGPY; conditions: 63 g a.i./ha, water application under submerged condition, tubers planted, visually observed 14th day after application; 0 = untreated control, 100 = complete kill
How it was run: as §1

[19] = tested on: wheat (Triticum aestivum L.), TRZAX; assay: Test Example 2 post-emergence (foliage treatment) herbicidal activity, TRZAX
How it was run: as §4

[20] = tested on: rice (Oryza sativa L.: ORYSA); assay: Test Example 3 water application herbicidal activity (paddy), transplanted rice ORYSA; conditions: 63 g a.i./ha, water application 4th day after transplantation of 2 leaf stage rice, visually observed 21st day after application; 0 = untreated control, 100 = complete kill
From the text: Paddy field soil was put into a 1/1,000,000 ha pot and seeds of barnyardgrass (Echinochiloa oryzicola: ECHOR) and japanese bulrush (Scirpus juncoides: SCPJO) were sown and slightly covered with soil. Then the pot was left to stand still in a greenhouse in a state where the depth of flooding water was from 0.5 to 1 cm, and one day later, tubers of japanese ribbon wapato (Sagittaria pygmaea: SA GPY) were planted. Thereafter, the depth of flooding water was maintained at a level of from 3 to 4 cm, and when barnyardgrass and japanese bulrush reached a 0.5 leaf stage, an aqueous diluted solution of a wettable powder or emulsifiable concentrate having the compound of the present invention formulated in accordance with a usual formulation method, was uniformly applied under submerged condition by a pipette so that the dose of the active ingredient would be at a predetermined level. On the other hand, paddy filed soil was put into a 1/1,000,000 ha pot and puddled and leveled, and the depth of flooding water was from 3 to 4 cm. One day later, rice (Oryza sativa L.: ORYSA) of 2 leaf stage was transplanted in a depth of 3 cm. On the 4th day after the transplantation, the compound of the present invention was applied in the same manner as described above. On the 14th day after the application of the herbicide, the growth of barnyardgrass, japanese burlush and japanese ribbon wapato was visually observed and on the 21st day after the application of the herbicide, the growth of rice was visually observed, and the herbicidal effects were evaluated by growth controlling degrees (%) ranging from 0 (equivalent to the untreated control) to 100 (complete kill), whereby the results shown in Table 6, were obtained. Compound Nos. in Table 6 correspond to Compound Nos. in Table 1 and 2 given hereinbefore.

[21] = tested on: soybean (Glycine max Merr.): GLXMA; assay: Test Example 1 pre-emergence herbicidal activity, GLXMA; conditions: Rate 63 g a.i./ha, visually observed 20th to 23rd day after application
How it was run: as §2

[22] = tested on: barnyardgrass (Echinochloa crus-galli L.), ECHCG; assay: Test Example 2 post-emergence (foliage treatment) herbicidal activity, ECHCG
How it was run: as §3

[23] = tested on: velvetleaf (Abutilon theophrasti): ABUTH; assay: Test Example 1 pre-emergence herbicidal activity, ABUTH; conditions: Rate 63 g a.i./ha, visually observed 20th to 23rd day after application
How it was run: as §2

[24] = tested on: redroot pigweed (Amaranthus retroflexus L.): AMARE; assay: Test Example 1 pre-emergence herbicidal activity, AMARE; conditions: Rate 63 g a.i./ha, visually observed 20th to 23rd day after application
How it was run: as §2

Row | Structure (SMILES) | growth controlling degrees (%) ECHOR [1] | Pre-emergence Herbicidal Activity ECHCG (growth controlling degree) [2] | growth controlling degree, AMARE ([3]; 63 g a.i./ha) | Pre-emergence Herbicidal Activity SIDSP (growth controlling degree) [4] | growth controlling degree, DIGSP ([5]; 63 g a.i./ha) | growth controlling degrees (%) SCPJO [6] | growth controlling degree, SETVI ([7]; 63 g a.i./ha) | growth controlling degree, ORYSA ([8]; 63 g a.i./ha) | growth controlling degree, ZEAMX ([9]; 63 g a.i./ha) | Pre-emergence Herbicidal Activity ZEAMX (growth controlling degree) [10] | growth controlling degree, SIDSP ([11]; 63 g a.i./ha) | Pre-emergence Herbicidal Activity TRZAX (growth controlling degree) [12] | Pre-emergence Herbicidal Activity DIGSP (growth controlling degree) [13] | Pre-emergence Herbicidal Activity SETVI (growth controlling degree) [16] | Pre-emergence Herbicidal Activity ORYSA (growth controlling degree) [17] | growth controlling degrees (%) SAGPY [18] | growth controlling degrees (%) ORYSA [20] | Pre-emergence Herbicidal Activity GLXMA (growth controlling degree) [21] | Pre-emergence Herbicidal Activity ABUTH (growth controlling degree) [23] | Pre-emergence Herbicidal Activity AMARE (growth controlling degree) [24] | other results
1 | COc1c(Cl)cc(F)c(-c2nn(C)c(OC(F)F)c2Cl)c1NC(=O)c1ccccc1F [Compound 1-22] | 100% | 80% | 100% | 100% | 100% | 95% | 100% | 95% | 90% | 20% | 100% | 10% | 100% | 100% | 50% | 98% | 40% | 50% | 100% | 100% | growth controlling degree, ABUTH ([14]; 63 g a.i./ha): 100%; growth controlling degree, GLXMA ([15]; 63 g a.i./ha): 98%; growth controlling degree, TRZAX ([19]; 63 g a.i./ha): 40%; growth controlling degree, ECHCO ([22]; 63 g a.i./ha): 100%
2 | COc1c(Cl)cc(F)c(-c2nn(C)c(OC(F)F)c2Cl)c1NC(=O)CCc1ccccc1 [Compound 1-21] | 100% | 95% | – | 100% | – | 70% | – | – | – | 20% | – | 0% | 100% | 100% | 40% | 100% | 50% | 10% | 100% | 100% | growth controlling degree, AMARE ([3]; 31 g a.i./ha): 100%; growth controlling degree, DIGSP ([5]; 31 g a.i./ha): 60%; growth controlling degree, SETVI ([7]; 31 g a.i./ha): 95%; growth controlling degree, ORYSA ([8]; 31 g a.i./ha): 90%; growth controlling degree, ZEAMX ([9]; 31 g a.i./ha): 90%; growth controlling degree, SIDSP ([11]; 31 g a.i./ha): 100%; growth controlling degree, ABUTH ([14]; 31 g a.i./ha): 100%; growth controlling degree, GLXMA ([15]; 31 g a.i./ha): 70%; growth controlling degree, TRZAX ([19]; 31 g a.i./ha): 40%; growth controlling degree, ECHCO ([22]; 31 g a.i./ha): 80%
3 | COc1ccc(COC(=O)Nc2c(OC)c(Cl)cc(F)c2-c2nn(C)c(OC(F)F)c2Cl)cc1 [Compound 1-56] | 100% | 50% | 100% | 70% | 98% | 95% | 100% | 90% | 80% | 10% | 100% | 0% | 70% | 80% | 20% | 80% | 35% | 0% | 60% | 100% | growth controlling degree, ABUTH ([14]; 63 g a.i./ha): 100%; growth controlling degree, GLXMA ([15]; 63 g a.i./ha): 100%; growth controlling degree, TRZAX ([19]; 63 g a.i./ha): 50%; growth controlling degree, ECHCO ([22]; 63 g a.i./ha): 90%
4 | Cn1nc(-c2c(F)cc(Cl)c(OC(F)F)c2NCc2ccccc2)c(Cl)c1OC(F)F [Compound 1-88] | 100% | 50% | 100% | 80% | 98% | 80% | 100% | 30% | 60% | 0% | 100% | 0% | 98% | 70% | 10% | 60% | 20% | 40% | 70% | 100% | growth controlling degree, ABUTH ([14]; 63 g a.i./ha): 100%; growth controlling degree, GLXMA ([15]; 63 g a.i./ha): 60%; growth controlling degree, TRZAX ([19]; 63 g a.i./ha): 30%; growth controlling degree, ECHCO ([22]; 63 g a.i./ha): 100%
5 | COC(=O)Nc1c(OC)c(Cl)cc(F)c1-c1nn(C)c(OC(F)F)c1Cl [Compound 1-62] | 100% | 100% | 100% | 100% | 100% | 100% | 100% | 80% | 80% | 30% | 100% | 60% | 100% | 100% | 80% | 100% | 70% | 20% | 100% | 100% | growth controlling degree, ABUTH ([14]; 63 g a.i./ha): 100%; growth controlling degree, GLXMA ([15]; 63 g a.i./ha): 80%; growth controlling degree, TRZAX ([19]; 63 g a.i./ha): 30%; growth controlling degree, ECHCO ([22]; 63 g a.i./ha): 100%
